# “Also recorded” adds a separate entry of the source. Structures can show the parent of a compound that is named as a salt. Where two headings read alike, the source gives them in different places.
# What was measured:
# [1] = Thermodynamic solubility (Cyprotex); type: physicochemical; settings: pH 7.4, saline or isotonic, thermodynamic from solid, pH7.4, potassium salt
# Description: (§1) CMF-019 ((S)-3-[1-(1-Ethyl-propyl)-2-thiophen-2-ylmethyl-1H-benzoimidazole-5-carbonyl]-amino-5-methyl-hexanoic acid) has previously been prepared (compound number 107 from patent US20140094450, 2014) via a minor modification of the literature procedure (Fig. 2). […] Thermodynamic solubility (potassium salt) and an in vitro murine microsomal stability of CMF-019 were performed at Cyprotex (Macclesfield, UK).
# [2] = Analysis of rat plasma samples by LC-MS/MS; type: in vivo; settings: approx. 10 min after last of three cumulative i.v. doses, heparinised samples, n = 6
# Description: Analysis of plasma samples was performed by Peakdale Molecular (Chapel-en-la-Frith, UK). End-point blood samples were taken from rats (n = 6) following completion of three cumulative doses of CMF-019 (as described before), approximately 10 min after the last intravenous administration. The blood was collected in heparin-coated vials and spun at low speed (2000 g, 5 min), the plasma supernatant was removed and frozen. Quantitative analysis was performed using LC-MS/MS with metaprolol as an internal standard and CMF-019 to quantify CMF-019 in the samples.
# [3] = test system: anaesthetised male Sprague–Dawley rats; assay: Rat heart catheterisation (left ventricle pressure-volume catheter), intravenous injection; type: in vivo; settings: for increase in dP/dtMAX (cardiac contractility): cumulative bolus
# From the text: Male Sprague-Dawley rats (273 ± 6 g; […] Temperature was monitored throughout the surgical procedure using a rectal probe. Prior to the start of surgery, it was ensured that pain reflexes had ceased by use of a hind-paw pinch test. The surgery was completed as previously described. In brief, the right external jugular vein was cannulated, flushed with heparin solution (2%, 0.9% saline, pH5, Macopharma) and the right common carotid artery located. The catheter (Millar Inc., SPR-869) was calibrated using the MPVS Ultra system (ADIstruments) before being inserted into the carotid and advanced to the left ventricle. Once a stable pressure-volume loop could be observed, the catheter was left in place for ten minutes. […] The effects on pressure and volume were measured and the heart rate monitored to determine and maintain a suitable depth of anaesthesia. […] Data were acquired using the MPVS Ultra system (ADIstruments) and analysed using LabChart 8 (ADIstruments). Values for the maximal change in left ventricular systolic pressure (LVSP), stroke volume, cardiac output, contractility ([…] lusitropy ([…]) from baseline were calculated from the raw data and compared. Following completion of the measurements the animal was euthanised by exsanguination under high flow isoflurane.
# apelin receptor [4] = target: T1, apelin receptor (Mus musculus, UniProt Q9WV08); assay: Competition radioligand binding, mouse whole heart homogenate
# T1 construct: from tissue; host or cells: mouse whole heart homogenate
# T1 sequence (Q9WV08 1-377): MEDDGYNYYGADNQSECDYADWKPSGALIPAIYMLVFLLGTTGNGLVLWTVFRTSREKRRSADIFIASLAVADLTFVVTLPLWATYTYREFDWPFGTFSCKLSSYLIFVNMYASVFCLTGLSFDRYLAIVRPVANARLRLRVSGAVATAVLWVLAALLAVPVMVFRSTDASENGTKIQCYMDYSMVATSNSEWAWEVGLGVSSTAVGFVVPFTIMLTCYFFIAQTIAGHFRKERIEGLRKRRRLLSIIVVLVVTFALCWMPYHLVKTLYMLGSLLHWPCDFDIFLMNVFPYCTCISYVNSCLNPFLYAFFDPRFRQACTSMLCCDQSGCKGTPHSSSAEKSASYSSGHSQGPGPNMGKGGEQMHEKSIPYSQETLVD
# Description: (§2) Initial binding assays were performed by Cerep (Celle L’Evescault, France) on Chinese Hamster Ovary (CHO-K1) cells expressing the human apelin receptor. Further experiments were performed on human homogenised left ventricle (HLV, 1.5 mg/ml) and rat and mouse whole heart homogenates to determine any species variability prior to in vivo experiments. […] Experiments were performed in triplicate and data analysed using GraphPad Prism 6 (GraphPad Software, Inc. La Jolla, USA). Binding affinities were calculated by the Cheng-Prusoff methodology using measured IC50 values.
# apelin receptor [5] = target: T2, apelin receptor (Homo sapiens, UniProt P35414); settings: compared to [Pyr1]apelin-13
# T2 sequence (P35414 1-380): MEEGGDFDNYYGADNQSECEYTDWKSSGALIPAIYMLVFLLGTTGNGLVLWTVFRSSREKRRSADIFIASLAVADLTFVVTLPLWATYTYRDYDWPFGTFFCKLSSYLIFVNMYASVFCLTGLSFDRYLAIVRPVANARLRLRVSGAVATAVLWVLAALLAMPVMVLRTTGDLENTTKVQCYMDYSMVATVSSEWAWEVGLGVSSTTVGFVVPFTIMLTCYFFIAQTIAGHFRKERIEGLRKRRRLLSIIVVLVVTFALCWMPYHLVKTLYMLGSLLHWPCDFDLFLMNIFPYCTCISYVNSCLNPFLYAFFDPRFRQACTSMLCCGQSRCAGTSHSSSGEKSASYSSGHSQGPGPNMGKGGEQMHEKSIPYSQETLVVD
# From the text: Statistical significance was taken as 5%.
# apelin receptor [6] = target: T3, apelin receptor (Rattus norvegicus, UniProt Q9JHG3); assay: Competition radioligand binding, rat whole heart homogenate
# T3 construct: from tissue; host or cells: rat whole heart homogenate
# T3 sequence (Q9JHG3 1-377): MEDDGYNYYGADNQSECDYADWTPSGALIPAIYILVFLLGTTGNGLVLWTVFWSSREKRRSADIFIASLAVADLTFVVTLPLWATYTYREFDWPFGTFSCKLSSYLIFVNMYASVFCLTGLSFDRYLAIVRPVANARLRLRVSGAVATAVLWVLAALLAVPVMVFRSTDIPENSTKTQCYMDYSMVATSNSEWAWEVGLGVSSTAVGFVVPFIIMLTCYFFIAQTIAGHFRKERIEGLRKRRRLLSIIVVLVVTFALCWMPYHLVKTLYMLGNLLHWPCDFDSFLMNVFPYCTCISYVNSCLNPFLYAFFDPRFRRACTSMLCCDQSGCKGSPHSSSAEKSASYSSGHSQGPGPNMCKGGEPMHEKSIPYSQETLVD
# Description: as §2
# apelin receptor [7] = target: T2, apelin receptor; assay: Bias calculations between pathways (ΔΔLogR, bias factors); settings: compared to [Pyr1]apelin-13
# Description: β-Arrestin recruitment, β-arrestin mediated internalisation and cAMP assays were performed according to the manufacturer’s instructions (DiscoverX®, Fremont, CA) and as described previously [4].
# All data are expressed as mean ± SEM values. Binding and cell-based experiments were performed in triplicate. For cell based assays, n-values are given as the number of replicates/number of experiments.
# apelin receptor [8] = target: T2, apelin receptor
# Description: as §2
# [9] = In vitro murine microsomal stability (Cyprotex); type: in vitro ADME; settings: mouse, murine microsomes
# Description: as §1
# native apelin receptor = target: T4, native apelin receptor (Homo sapiens, UniProt P35414); assay: Competition radioligand binding, human left ventricle homogenate
# T4 sequence (P35414 1-380): T2 sequence (P35414 1-380)
# Description: as §2
# [10] = set-up: method as in earlier work; settings: saline at room temperature; cited from earlier work
# [11] = 500 nmol i.v., anaesthetised rats
# [12] = 5000 nmol i.v., anaesthetised rats
compound,measurement,setting,value
CCC(CC)n1c(Cc2cccs2)nc2cc(C(=O)N[C@H](CC(=O)O)CC(C)C)ccc21 [CMF-019 (potassium salt)],solubility,[1],2090 µg/mL
same,mean plasma concentration,[2],25.4 ± 2.5 µM
"CCC(CC)n1c(Cc2cccs2)nc2cc(C(=O)N[C@H](CC(=O)O)CC(C)C)ccc21 [CMF-019, (S)-3-[1-(1-Ethyl-propyl)-2-thiophen-2-ylmethyl-1H-benzoimidazole-5-carbonyl]-amino-5-methyl-hexanoic acid]",increase in cardiac output,[3]; [11],1210 ± 170 RVU/min
same,increase in stroke volume,[3]; [11],2.62 ± 0.31 RVU
same,increase in dP/dtMAX (cardiac contractility),[3]; [11],606 ± 112 mmHg/s
same,increase in LVSP,[3]; [12],6.22 ± 1.98 mmHg
same,increase in dP/dtMAX (cardiac contractility),[3]; [12],833 ± 152 mmHg/s
same,adverse effects,[3]; any of the concentrations administered (50–5000 nmol i.v.),No adverse effects were observed
same,effect on dP/dtMIN (lusitropy),"[3]; i.v., anaesthetised rats",Neither [Pyr^1]apelin-13 nor CMF-019 altered the dP/dtMIN; also recorded: did not alter
same,effect on heart rate,"[3]; i.v., anaesthetised rats",without a change in heart rate
same,Ki,apelin receptor [4],1.95 nM
same,relative effectiveness (RE),apelin receptor [5]; cAMP,4.19
same,ΔLogR,apelin receptor [5]; cAMP,0.62 ± 0.16
same,relative effectiveness (RE),apelin receptor [5]; internalisation,7.19 × 10^−4
same,ΔLogR,apelin receptor [5]; internalisation,−3.14 ± 0.19
same,relative effectiveness (RE),apelin receptor [5]; β-arrestin,0.01
same,ΔLogR,apelin receptor [5]; β-arrestin,−1.98 ± 0.18
same,Ki,apelin receptor [6],3.24 nM
same,bias factor (BF),apelin receptor [7]; cAMP (Gαi) over internalisation,5828
same,bias factor (BF),apelin receptor [7]; cAMP (Gαi) over β-arrestin,398
same,ΔΔLogR,apelin receptor [7]; cAMP over internalisation,3.77 ± 0.25
same,ΔΔLogR,apelin receptor [7]; cAMP over β-arrestin,2.60 ± 0.24
same,ΔΔLogR,apelin receptor [7]; β-arrestin over internalisation,1.17 ± 0.26
same,Ki,apelin receptor [8],24.5 nM
same,half-life,[9],38 min
same,Ki,native apelin receptor,2.63 nM
same,mean plasma concentration,[2],~25 µM
CC1=CC(=O)C(C2CCCCC2)=C/C1=N\OS(=O)(=O)c1ccccc1 [ML233],solubility in saline,[10],low solubility
